Among the data in PubChem BioAssay AID330 (DTP/NCI, 2004) are T/C values, retold here.

This assay relates to P388 leukemia ip, CD2F1 mice, survival T/C. Kind of assay: NCI In Vivo Anticancer Drug Screen. Data for tumor model P388 Leukemia (intraperitoneal) in CD2F1 (CDF1) mice. Particulars: endpoint: median survival time, higher = longer survival. In outline:
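Mice carrying the transplanted tumor received test compound or vehicle. Survival was recorded in each group, and the value is the treated-group measurement divided by that of the vehicle-treated control group.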

The mark [1] stands for this setting: dose: 60.0 mg/kg/injection, schedule: Q01DX005 (ip), vehicle: Klucel (hydroxypropylcellulose) (HPC).
Where [2] appears, read: dose: 120.0 mg/kg/injection, schedule: Q01DX005 (ip), vehicle: Klucel (hydroxypropylcellulose) (HPC).
Where [3] appears, read: dose: 240.0 mg/kg/injection, schedule: Q01DX005 (ip), vehicle: Klucel (hydroxypropylcellulose) (HPC).
The mark [4] stands for this setting: dose: 50.0 mg/kg/injection, schedule: Q01DX009 (ip), vehicle: saline with Tween-80.
Setting [5] is: dose: 100.0 mg/kg/injection, schedule: Q01DX009 (ip), vehicle: saline with Tween-80.
Setting [6] is: dose: 50.0 mg/kg/injection, schedule: Q01DX009 (ip), vehicle: Klucel (hydroxypropylcellulose) (HPC).
The mark [7] stands for this setting: dose: 100.0 mg/kg/injection, schedule: Q01DX009 (ip), vehicle: Klucel (hydroxypropylcellulose) (HPC).
[8] abbreviates: dose: 200.0 mg/kg/injection, schedule: Q01DX009 (ip), vehicle: Klucel (hydroxypropylcellulose) (HPC).
Where [9] appears, read: dose: 25.0 mg/kg/injection, schedule: Q01DX009 (ip), vehicle: water.
Where [10] appears, read: dose: 50.0 mg/kg/injection, schedule: Q01DX009 (ip), vehicle: water.
The mark [11] stands for this setting: dose: 100.0 mg/kg/injection, schedule: Q01DX009 (ip), vehicle: water.
Setting [12] is: dose: 400.0 mg/kg/injection, schedule: Q01DX009 (ip), vehicle: Klucel (hydroxypropylcellulose) (HPC).
Setting [13] is: dose: 60.0 mg/kg/injection, schedule: Q01DX005 (ip), vehicle: saline with Tween-80.
[14] abbreviates: dose: 120.0 mg/kg/injection, schedule: Q01DX005 (ip), vehicle: saline with Tween-80.

Values joined by “and” are separate entries in the source; they are usually repeats but may differ in a detail not shown here. Identical values can stand only once. Inconclusive results and toxic doses are left out. Numbered stars: 1 amine (or outer) side, 2 acyl side, 3 side chain; on linkers, the order of the positions; unused ones are H or OH. Bridge positions count the residues as written; N and C are the ends. Square brackets hold non-standard residues; d marks the D form. Peptide text beside a SMILES is read from it. I, II: the chains in the order shown. * marks the point of attachment. ξ: configuration not given here. Quinaldoyl(3-OH,6-OMe) = COc1ccc2nc(C(=O)*)c(O)cc2c1; X8 = CC(=O)OC1CC=NN([*:1])C1C(=O)[*:2]; ξNMeVal(3-OH) = CNC(C(=O)O)C(C)(C)O; X20 = O=C(C1CCCNN1[*:1])[*:2]; Sar = CNCC(=O)O

As for `COC1(OC)OC(c2ccccc2)=C(C#N)C(c2ccccc2)C1(OC)OC` (stereo not drawn), the T/C runs as follows: under setting [1], 102 % of control; under setting [2], 100 % of control; under setting [3], 96 % of control.
On the same counts, the results for `Clc1cccc(-c2nc(N3CCOCC3)c3c4c(sc3n2)CCC4)c1` are 101 % of control, 97 % of control and 97 % of control.
For `CCCc1cc(-c2cccc3ccccc23)c(CCC)c2c1-c1cccc3cccc-2c13`, the T/C is 97 % of control under setting [4] and 96 % of control under setting [5].
Consider `Cc1cc(C(C)(C)C)ccc1SP(Sc1ccc(C(C)(C)C)cc1C)Sc1ccc(C(C)(C)C)cc1C`, for which the T/C reads like this: under setting [6], 100 % of control; under setting [7], 92 % of control; under setting [8], 92 % of control.
Take `CCCCCCC(=O)/C=C/c1cccc(OCc2cccc(Cl)c2)c1`: the T/C runs as follows: (dose: 50.0 mg/kg/injection, schedule: Q01DX005 (ip), vehicle: saline + Tween-80 + alcohol) 96 % of control; (dose: 100.0 mg/kg/injection, schedule: Q01DX005 (ip), vehicle: saline + Tween-80 + alcohol) 91 % of control; (dose: 200.0 mg/kg/injection, schedule: Q01DX005 (ip), vehicle: saline + Tween-80 + alcohol) 96 % of control.
Turning to `O=C(NO)C1CCCCC12OCCO2` (stereo not drawn), the T/C was 98 % of control (dose: 100.0 mg/kg/injection, schedule: Q04DX002 (ip), vehicle: saline); 101 % of control (dose: 200.0 mg/kg/injection, schedule: Q04DX002 (ip), vehicle: saline); 101 % of control (dose: 400.0 mg/kg/injection, schedule: Q04DX002 (ip), vehicle: saline).
For `C[n+]1cccc(C(N)=O)c1`, the T/C runs as follows: under setting [9], 102 % of control; under setting [10], 112 % of control; under setting [11], 112 % of control; (dose: 200.0 mg/kg/injection, schedule: Q01DX009 (ip), vehicle: water) 110 % of control; (dose: 400.0 mg/kg/injection, schedule: Q01DX009 (ip), vehicle: water) 100 % of control.
As for `COc1cccc(/C=C/C(C)=N/NC(N)=O)c1`, the T/C reads like this: (dose: 30.0 mg/kg/injection, schedule: Q01DX005 (ip), vehicle: Klucel (hydroxypropylcellulose) (HPC)) 100 % of control; under setting [1], 101 % of control; under setting [2], 100 % of control; under setting [3], 95 % of control.
Take `O=NN(CCCl)C(=O)Nc1c[nH]c2ccccc12`: the T/C (dose: 25.0 mg/kg/injection, schedule: Q01DX009 (ip), vehicle: Klucel (hydroxypropylcellulose) (HPC)) was 157 % of control; the T/C under setting [6] is 159 % of control and 166 % of control; the T/C under setting [7] is 166 % of control and 176 % of control; the T/C under setting [8] is 166 % of control and 175 % of control; the T/C under setting [12] is 166 % of control and 176 % of control.
Regarding `[NH-]C(CO)C(=O)O.[NH-]C(CO)C(=O)O.[Pt+2]` (stereo not drawn), the T/C (dose: 3.13 mg/kg/injection, schedule: Q01DX009 (ip), vehicle: water) was 91 % of control; the T/C (dose: 6.25 mg/kg/injection, schedule: Q01DX009 (ip), vehicle: water) is 91 % of control; the T/C (dose: 12.5 mg/kg/injection, schedule: Q01DX009 (ip), vehicle: water) was 97 % of control; the T/C under setting [9] was 106 % of control; the T/C under setting [10] is 115 % of control; the T/C under setting [11] was 115 % of control.
For `NC(COc1ccccc1)Cc1ccccc1` (stereo not drawn), the T/C runs as follows: (dose: 12.5 mg/kg/injection, schedule: Q04DX003 (ip), vehicle: saline) 100 % of control; (dose: 25.0 mg/kg/injection, schedule: Q04DX003 (ip), vehicle: saline) 100 % of control; (dose: 50.0 mg/kg/injection, schedule: Q04DX003 (ip), vehicle: saline) 102 % of control; (dose: 100.0 mg/kg/injection, schedule: Q04DX003 (ip), vehicle: saline) 99 % of control.
For the molecule `CC(C)=CCC(OC(=O)C=C(C)C)c1cc(O)c2c(O)ccc(O)c2c1O.[Fe]` (stereo not drawn), the T/C is 92 % of control (dose: 100.0 mg/kg/injection, schedule: Q04DX002 (ip), vehicle: saline with Tween-80); 92 % of control (dose: 200.0 mg/kg/injection, schedule: Q04DX002 (ip), vehicle: saline with Tween-80); 93 % of control (dose: 400.0 mg/kg/injection, schedule: Q04DX002 (ip), vehicle: saline with Tween-80).
Turning to `COc1ccc2nc(C(=O)NC3COC(=O)C(C(C)(C)O)N(C)C(=O)CN(C)C(=O)CNC(=O)C4CCCNN4C(=O)C(NC(=O)c4nc5ccc(OC)cc5cc4O)COC(=O)C(C(C)(C)O)N(C)C(=O)CN(C)C(=O)CNC(=O)C4C(OC(C)=O)CC=NN4C3=O)c(O)cc2c1` (stereo not drawn) (I: {Quinaldoyl(3-OH,6-OMe)}-S[X8]G[Sar][ξNMeVal(3-OH)] / II: {Quinaldoyl(3-OH,6-OMe)}-S[X20]G[Sar][ξNMeVal(3-OH)]; ester I:1-II:C, I:C-II:1; configuration not given here), the T/C by setting is: (dose: 20.0 micrograms/kg/injection, schedule: Q01DX005 (ip), vehicle: DMSO) 97 % of control; (dose: 40.0 micrograms/kg/injection, schedule: Q01DX005 (ip), vehicle: DMSO) 87 % of control.
Regarding `CCCCS(=O)(=O)C(C)(Cl)C(=O)OCC` (stereo not drawn), the T/C is 100 % of control (dose: 25.0 mg/kg/injection, schedule: Q01DX001 (ip), vehicle: saline with Tween-80); 100 % of control (dose: 50.0 mg/kg/injection, schedule: Q01DX001 (ip), vehicle: saline with Tween-80); 106 % of control and 93 % of control (dose: 100.0 mg/kg/injection, schedule: Q01DX001 (ip), vehicle: saline with Tween-80).
In the case of `COc1cccc(C(c2cc3c(cc2O)OCO3)N2CCOCC2)c1O` (stereo not drawn), the T/C is 114 % of control (2×) and 116 % of control under setting [13]; 108 % of control and 116 % of control and 122 % of control under setting [14]; 109 % of control and 112 % of control (dose: 240.0 mg/kg/injection, schedule: Q01DX005 (ip), vehicle: saline with Tween-80); 118 % of control (dose: 480.0 mg/kg/injection, schedule: Q01DX005 (ip), vehicle: saline with Tween-80).
Turning to `CSc1nc(NC2OC(COC(C)=O)C(OC(C)=O)C(OC(C)=O)C2OC(C)=O)c(N=CC=Nc2c(NC3OC(COC(C)=O)C(OC(C)=O)C(OC(C)=O)C3OC(C)=O)nc(SC)n(C)c2=O)c(=O)n1C` (stereo not drawn), the T/C is, setting by setting: under setting [13], 89 % of control; under setting [14], 91 % of control.
Turning to `CC(=O)N/N=C1\CCC2CCC1C2` (stereo not drawn), the T/C runs as follows: (dose: 50.0 mg/kg/injection, schedule: Q01DX005 (ip), vehicle: Klucel (hydroxypropylcellulose) (HPC)) 100 % of control; (dose: 100.0 mg/kg/injection, schedule: Q01DX005 (ip), vehicle: Klucel (hydroxypropylcellulose) (HPC)) 99 % of control; (dose: 200.0 mg/kg/injection, schedule: Q01DX005 (ip), vehicle: Klucel (hydroxypropylcellulose) (HPC)) 96 % of control.
As to `Cc1ccc(S(=O)(=O)N(C)c2ccc(Cl)cc2C2=NCCc3ccccc32)cc1`, the T/C runs as follows: under setting [6], 100 % of control; under setting [7], 101 % of control; under setting [8], 101 % of control.
As for `CC1(C)C(=O)CCC2(C)C1CC(=O)C1(C)C2CCC2(C)C(c3ccoc3)OC(=O)C3OC321` (stereo not drawn), the T/C was 100 % of control and 102 % of control (dose: 0.5 mg/kg/injection, schedule: Q01DX009 (ip), vehicle: Klucel (hydroxypropylcellulose) (HPC)); 102 % of control (dose: 1.0 mg/kg/injection, schedule: Q01DX009 (ip), vehicle: Klucel (hydroxypropylcellulose) (HPC)); 92 % of control and 96 % of control (dose: 2.0 mg/kg/injection, schedule: Q01DX009 (ip), vehicle: Klucel (hydroxypropylcellulose) (HPC)); 98 % of control and 93 % of control (dose: 4.0 mg/kg/injection, schedule: Q01DX009 (ip), vehicle: Klucel (hydroxypropylcellulose) (HPC)); 98 % of control and 86 % of control (dose: 8.0 mg/kg/injection, schedule: Q01DX009 (ip), vehicle: Klucel (hydroxypropylcellulose) (HPC)).
For the molecule `CC1(C)CC2(OC2c2ccc([N+](=O)[O-])cc2)C(=O)c2ccccc21` (stereo not drawn), the T/C is 87 % of control (dose: 0.78 mg/kg/injection, schedule: Q01DX009 (ip), vehicle: Klucel (hydroxypropylcellulose) (HPC)); 88 % of control (dose: 1.56 mg/kg/injection, schedule: Q01DX009 (ip), vehicle: Klucel (hydroxypropylcellulose) (HPC)); 90 % of control (dose: 3.13 mg/kg/injection, schedule: Q01DX009 (ip), vehicle: Klucel (hydroxypropylcellulose) (HPC)); 100 % of control under setting [4]; 90 % of control under setting [5]; 95 % of control (dose: 200.0 mg/kg/injection, schedule: Q01DX009 (ip), vehicle: saline with Tween-80). In addition, the T/C under setting [12] was 93 % of control.
